We go through 21 compounds from patent publication US12595230B2, “Substituted 6,7-dihydro-5H-benzo[7]annulene compounds and their derivatives, processes for their preparation and therapeutic uses thereof” (Sanofi, priority 2020, dated 2026).

SMILES strings stand for the structures.

The experiment has as its target T1, ERα (Homo sapiens, UniProt P03372).
T1 construct: host or cells: MCF7
T1 sequence (P03372 1-595): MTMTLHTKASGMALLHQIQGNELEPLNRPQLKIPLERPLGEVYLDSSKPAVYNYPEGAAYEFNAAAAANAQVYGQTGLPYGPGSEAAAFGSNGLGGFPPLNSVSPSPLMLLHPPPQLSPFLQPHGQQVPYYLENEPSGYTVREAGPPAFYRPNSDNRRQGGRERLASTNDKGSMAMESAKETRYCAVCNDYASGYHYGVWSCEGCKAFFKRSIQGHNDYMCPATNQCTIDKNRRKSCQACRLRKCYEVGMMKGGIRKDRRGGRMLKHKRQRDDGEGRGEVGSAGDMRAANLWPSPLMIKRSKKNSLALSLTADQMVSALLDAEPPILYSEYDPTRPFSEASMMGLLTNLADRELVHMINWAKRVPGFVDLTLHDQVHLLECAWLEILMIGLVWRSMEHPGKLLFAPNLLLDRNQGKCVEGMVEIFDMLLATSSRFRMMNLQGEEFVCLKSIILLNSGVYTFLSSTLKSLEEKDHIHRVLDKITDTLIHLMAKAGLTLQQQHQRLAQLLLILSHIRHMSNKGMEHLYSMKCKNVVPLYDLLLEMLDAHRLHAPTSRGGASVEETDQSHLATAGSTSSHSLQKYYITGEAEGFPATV
Briefly: Estrogen receptor degradation activity: breast cancer cell ERα in cell western assay (MCF7 cells). It counts as cell-based. To be noted: for % Degradation At 0.3 μM: 4 hours, relative to fulvestrant 0.1 μM positive control; for DC50: 4 hours post compound addition, concentration which degrades 50% of the estrogen receptor, read-out: Degradation IC50. The essentials: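 Compounds were applied to MCF7 cells in stripped-serum, phenol red-free medium for 4 h at final 0.3–0.0000018 μM, with fulvestrant (0.1 μM) as control. Value: IC50 (nM) for 50% ERα degradation.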

Consider `O=C(O)c1ccc2c(c1)CCCC(c1cccc(CC(F)F)c1)=C2c1ccc(CC2CN(CCCF)C2)cc1` [Example 297, 8-(3-(2,2-difluoroethyl)phenyl)-9-(4-((1-(3-fluoropropyl)azetidin-3-yl)methyl)phenyl)-6,7-dihydro-5H-benzo[7]annulene-3-carboxylic acid], for which the “% Degradation At 0.3 μM” value is 81% and the DC50 amounted to 0.7 nM.

Consider `O=C(O)c1ccc2c(c1)CCCC(c1ccc(Cl)cc1Cl)=C2c1ccc(CC2(O)CN(CCCF)C2)cc1` [Example 233, 8-(2,4-dichlorophenyl)-9-(4-((1-(3-fluoropropyl)-3-hydroxyazetidin-3-yl)methyl)phenyl)-6,7-dihydro-5H-benzo[7]annulene-3-carboxylic acid], for which the “% Degradation At 0.3 μM” value is given as 85% and the DC50 amounted to 0.5 nM.

Regarding `O=C(O)c1ccc2c(c1Cl)CCCC(c1ccc(Cl)cc1Cl)=C2c1ccc(CC2CN(CCCF)C2)cc1` [Example 247, 4-chloro-8-(2,4-dichlorophenyl)-9-(4-((1-(3-fluoropropyl)azetidin-3-yl)methyl)phenyl)-6,7-dihydro-5H-benzo[7]annulene-3-carboxylic acid], the “% Degradation At 0.3 μM” value is reported as 97% and the DC50 came out at 1.8 nM.

For `Cc1ccc(C2=C(c3ccc(CC4CN(CCCF)C4)cc3)c3cc(F)c(O)c(F)c3CCC2)c(Cl)c1` [Example 265, 8-(2-chloro-4-methylphenyl)-2,4-difluoro-9-(4-((1-(3-fluoropropyl)azetidin-3-yl)methyl)phenyl)-6,7-dihydro-5H-benzo[7]annulen-3-ol], the “% Degradation At 0.3 μM” value is recorded as 83% and the DC50 was found to be 0.4 nM.

On to `Cl.O=C(O)c1ccc2c(c1)SCCC(c1ccc(Cl)cc1Cl)=C2c1ccc(CC2CN(CCCF)C2)cc1` [Example 52, 4-(2,4-dichlorophenyl)-5-(4-((1-(3-fluoropropyl)azetidin-3-yl)methyl)phenyl)-2,3-dihydrobenzo[b]thiepine-8-carboxylic acid], for which the “% Degradation At 0.3 μM” value is 54% and the DC50 came to 255 nM.

As for `COc1cc(C2=C(c3ccc(CC4CN(CCCF)C4)cc3)c3ccc(C(=O)O)cc3CCC2)ccn1` [Example 21, 9-(4-((1-(3-fluoropropyl)azetidin-3-yl)methyl)phenyl)-8-(2-methoxypyridin-4-yl)-6,7-dihydro-5H-benzo[7]annulene-3-carboxylic acid], the “% Degradation At 0.3 μM” value stood at 89% and the DC50 stood at 2.1 nM.

Turning to `O=C(O)c1ccc2c(c1)CCCC(c1cccc(CCO)c1)=C2c1ccc(CC2CN(CCCF)C2)cc1` [Example 319, 9-(4-((1-(3-fluoropropyl)azetidin-3-yl)methyl)phenyl)-8-(3-(2-hydroxyethyl)phenyl)-6,7-dihydro-5H-benzo[7]annulene-3-carboxylic acid], the “% Degradation At 0.3 μM” value is given as 73% and the DC50 was determined as 48 nM.

On to `O=C(O)c1ccc2c(c1)CCCC(c1ccc(Cl)cc1C(F)(F)F)=C2c1ccc(CC2CN(CCC(F)F)C2)cc1` [Example 289, 8-(4-chloro-2-(trifluoromethyl)phenyl)-9-(4-((1-(3,3-difluoropropyl)azetidin-3-yl)methyl)phenyl)-6,7-dihydro-5H-benzo[7]annulene-3-carboxylic acid], for which the “% Degradation At 0.3 μM” value is 86% and the DC50 is 0.3 nM.

For `COC(c1ccc(C2=C(c3ccc(Cl)cc3Cl)CCCc3cc(C(=O)O)ccc32)cc1)C1CN(CCCF)C1` (single isomer, unassigned; isomer 1) [Example 227, 8-(2,4-dichlorophenyl)-9-(4-((1-(3-fluoropropyl)azetidin-3-yl)(methoxy)methyl)phenyl)-6,7-dihydro-5H-benzo[7]annulene-3-carboxylic Acid Isomer 1], the “% Degradation At 0.3 μM” value was found to be 75% and the DC50 came out at 0.6 nM.

With `CC1(C)CCC(C2=C(c3ccc(CC4CN(CCCF)C4)cc3)c3ccc(C(=O)O)cc3CCC2)CC1.Cl` [Example 13, 8-(4,4-dimethylcyclohexyl)-9-(4-((1-(3-fluoropropyl)azetidin-3-yl)methyl)phenyl)-6,7-dihydro-5H-benzo[7]annulene-3-carboxylic acid], the “% Degradation At 0.3 μM” value was found to be 85% and the DC50 stood at 0.3 nM.

Turning to `O=C(O)c1ccc2c(c1)CCCC(c1cccc(C(F)(F)F)c1F)=C2c1ccc(CC2CN(CCC(F)F)C2)cc1` [Example 288, 9-(4-((1-(3,3-difluoropropyl)azetidin-3-yl)methyl)phenyl)-8-(2-fluoro-3-(trifluoromethyl)phenyl)-6,7-dihydro-5H-benzo[7]annulene-3-carboxylic acid], the “% Degradation At 0.3 μM” value is on record as 81% and the DC50 was 0.5 nM.

For the compound `Cc1ccc(C2=C(c3ccc(CC4CN(CCCF)C4)cc3)c3ccc(C(=O)O)cc3CCC2)c(C(F)(F)F)c1.Cl` [Example 213, 9-(4-((1-(3-fluoropropyl)azetidin-3-yl)methyl)phenyl)-8-(4-methyl-2-(trifluoromethyl)phenyl)-6,7-dihydro-5H-benzo[7]annulene-3-carboxylic acid hydrochloride], the “% Degradation At 0.3 μM” value is listed as 94% and the DC50 worked out at 0.2 nM.

In the case of `NC(c1ccc(C2=C(c3ccc(Cl)cc3Cl)CCCc3cc(C(=O)O)ccc32)cc1)C1CN(CCCF)C1` (single isomer, unassigned; isomer 1) [Example 243, 9-(4-(amino(1-(3-fluoropropyl)azetidin-3-yl)methyl)phenyl)-8-(2,4-dichlorophenyl)-6,7-dihydro-5H-benzo[7]annulene-3-carboxylic Acid Isomer 1], the “% Degradation At 0.3 μM” value amounted to 78% and the DC50 stood at 15.6 nM.

`Cc1cc(F)ccc1C1=C(c2ccc(CC3CN(CCC(F)F)C3)cc2)c2ccc(C(=O)O)cc2CCC1` [Example 279, 9-(4-((1-(3,3-difluoropropyl)azetidin-3-yl)methyl)phenyl)-8-(4-fluoro-2-methylphenyl)-6,7-dihydro-5H-benzo[7]annulene-3-carboxylic acid]: the “% Degradation At 0.3 μM” value was determined as 84% and the DC50 was 0.2 nM.

As for `O=C(O)c1ccc2c(c1)CCCC(c1ccccc1F)=C2c1ccc(CC2CN(CCCF)C2)cc1` [Example 35, 8-(2-fluorophenyl)-9-(4-((1-(3-fluoropropyl)azetidin-3-yl)methyl)phenyl)-6,7-dihydro-5H-benzo[7]annulene-3-carboxylic acid], the “% Degradation At 0.3 μM” value was 91% and the DC50 came to 0.4 nM.

Turning to `O=C(O)c1ccc2c(c1)SCC(c1ccc(Cl)cc1Cl)=C2c1ccc(CC2CN(CCCF)C2)cc1` [Example 308, 3-(2,4-dichlorophenyl)-4-(4-((1-(3-fluoropropyl)azetidin-3-yl)methyl)phenyl)-2H-thiochromene-7-carboxylic acid], the “% Degradation At 0.3 μM” value worked out at 94% and the DC50 turned out to be 1.4 nM.

As to `COc1c(C(=O)O)ccc2c1CCCC(c1ccc(Cl)cc1Cl)=C2c1ccc(CC2CN(CCCF)C2)cc1` [Example 271, 8-(2,4-dichlorophenyl)-9-(4-((1-(3-fluoropropyl)azetidin-3-yl)methyl)phenyl)-4-methoxy-6,7-dihydro-5H-benzo[7]annulene-3-carboxylic acid], the “% Degradation At 0.3 μM” value is reported as 83% and the DC50 stood at 16.2 nM.

Take `CC1CCc2cc(C(=O)O)ccc2C(c2ccc(CC3CN(CCCF)C3)cc2)=C1c1ccc(Cl)cc1Cl` (single isomer, unassigned) [Example 302, 8-(2,4-dichlorophenyl)-9-(4-((1-(3-fluoropropyl)azetidin-3-yl)methyl)phenyl)-7-methyl-6,7-dihydro-5H-benzo[7]annulene-3-carboxylic acid]: the “% Degradation At 0.3 μM” value is reported as 90% and the DC50 came to 0.6 nM.

With `Cc1c(F)ccc(C2=C(c3ccc(CC4CN(CCC(F)F)C4)cc3)c3ccc(C(=O)O)cc3CCC2)c1C` [Example 285, 9-(4-((1-(3,3-difluoropropyl)azetidin-3-yl)methyl)phenyl)-8-(4-fluoro-2,3-dimethylphenyl)-6,7-dihydro-5H-benzo[7]annulene-3-carboxylic acid], the “% Degradation At 0.3 μM” value stood at 89% and the DC50 was determined as 0.4 nM.

For `O=C(O)c1ccc2c(c1)CCCC(C1CC3CCC(C3)C1)=C2c1ccc(CC2CN(CCCF)C2)cc1` (stereo not drawn) [Example 316, 8-(bicyclo[3.2.1]octan-3-yl)-9-(4-((1-(3-fluoropropyl)azetidin-3-yl)methyl)phenyl)-6,7-dihydro-5H-benzo[7]annulene-3-carboxylic acid], the “% Degradation At 0.3 μM” value is listed as 81% and the DC50 worked out at 1.2 nM.

With `Cc1c(C2=C(c3ccc(CC4CN(CCC(F)F)C4)cc3)c3ccc(C(=O)O)cc3CCC2)ccc(Cl)c1F` [Example 292, 8-(4-chloro-3-fluoro-2-methylphenyl)-9-(4-((1-(3,3-difluoropropyl)azetidin-3-yl)methyl)phenyl)-6,7-dihydro-5H-benzo[7]annulene-3-carboxylic acid], the “% Degradation At 0.3 μM” value came out at 93% and the DC50 worked out at 0.4 nM.
